The values below come from patent US5516759A, “LHRH antagonists having lactam groups at the N-terminus” (TAP Holdings Inc., priority 1994, dated 1996).

Molecules are shown by their SMILES. Where a SMILES comes first, the peptide text is derived from it. Side-chain parts run from the residue outwards. [ ]: non-standard residue; d: D form. The star is where a group is joined. d2Nal(N,N-C(O)(CH2)4) = O=C1CCCCN1[C@H](Cc1ccc2ccccc2c1)C(=O)*; d2Nal(N,N-(CH2)3CO) = O=C1CCCN1[C@H](Cc1ccc2ccccc2c1)C(=O)*; Shikimoyl = O=C(C1=C[C@@H](O)[C@@H](O)[C@H](O)C1)*; Acetyl(2-oxopyrrolidin-1-yl) = O=C1CCCN1CC(=O)*; dPhe(4-Cl) = N[C@H](Cc1ccc(Cl)cc1)C(=O)O; d1Nal = N[C@H](Cc1cccc2ccccc12)C(=O)O; d(hCit) = NC(=O)NCCCC[C@@H](N)C(=O)O; Lys(iPr) = CC(C)NCCCC[C@H](N)C(=O)O; NMeY = CN[C@@H](Cc1ccc(O)cc1)C(=O)O; dCit = NC(=O)NCCC[C@@H](N)C(=O)O; hArg = N=C(N)NCCCC[C@H](N)C(=O)O; d3Pal = N[C@H](Cc1cccnc1)C(=O)O; Nicotinoyl = O=C(c1cccnc1)*

The target in this assay is T1, LHRH (Rattus norvegicus, UniProt P30969).
T1 construct: endogenous in cells
T1 sequence (P30969 1-327): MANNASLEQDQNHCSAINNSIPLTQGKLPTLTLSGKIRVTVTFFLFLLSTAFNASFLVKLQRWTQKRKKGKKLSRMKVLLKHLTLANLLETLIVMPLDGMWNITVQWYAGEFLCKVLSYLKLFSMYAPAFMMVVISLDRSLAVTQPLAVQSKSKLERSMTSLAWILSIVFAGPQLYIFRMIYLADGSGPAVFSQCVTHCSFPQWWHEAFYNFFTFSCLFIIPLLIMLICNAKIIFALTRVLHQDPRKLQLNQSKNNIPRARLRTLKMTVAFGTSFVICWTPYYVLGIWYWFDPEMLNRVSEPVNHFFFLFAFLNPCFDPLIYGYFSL
In words: in vitro test for LHRH antagonist potency (pA2). The class given is cell-based. The conditions noted are these: negative logarithm of the antagonist concentration required to shift the response curve produced by the agonist leuprolide to two-fold higher concentration. On the procedure:
Representative compounds of the present invention were evaluated in an in vitro test for LHRH antagonist potency (pA2). The test employed the method detailed in F. Haviv, et al. J. Med. Chem., 32:2340-2344 (1989). The values of pA2 are the negative logarithms of the concentration of the particular antagonist test compound required to shift the response curve produced by the agonist leuprolide to two-fold higher concentration. (Leuprolide is disclosed and claimed in U.S. Pat. No. 4,005,063.) Typically pA2 values of 9.5 or greater are indicative of good LHRH antagonist potency, with values of 10.0 or greater being preferred.
Turning to `CC(C)C[C@H](NC(=O)[C@@H](CCCNC(N)=O)NC(=O)[C@H](Cc1ccc(O)cc1)N(C)C(=O)[C@H](CO)NC(=O)[C@@H](Cc1cccnc1)NC(=O)[C@@H](Cc1ccc(Cl)cc1)NC(=O)[C@@H](Cc1ccc2ccccc2c1)N1CCCC1=O)C(=O)N[C@@H](CCCNC(=N)N)C(=O)N1CCC[C@H]1C(=O)N[C@H](C)C(N)=O` [Example 1, 5LactD2Nal^1 -D4ClPhe^2 -D3Pal^3 -Ser^4 -NMeTyr^5 -DCit^6 -Leu^7 -Arg^8 -Pro^9 -DAla^10 NH2] ({d2Nal(N,N-(CH2)3CO)}-[dPhe(4-Cl)][d3Pal]S[NMeY][dCit]LRP[dA]-NH2), the antagonist dissociation constant (Kb) is 8.13 pM. Under `CC(C)C[C@H](NC(=O)[C@@H](CCCCNC(=O)C1=C[C@@H](O)[C@@H](O)[C@H](O)C1)NC(=O)[C@H](Cc1ccc(O)cc1)N(C)C(=O)[C@H](CO)NC(=O)[C@@H](Cc1cccnc1)NC(=O)[C@@H](Cc1ccc(Cl)cc1)NC(=O)[C@@H](Cc1ccc2ccccc2c1)N1CCCCC1=O)C(=O)N[C@@H](CCCNC(=N)N)C(=O)N1CCC[C@H]1C(=O)N[C@H](C)C(N)=O` [Example 8, 6LactD2Nal^1 -D4ClPhe^2 -D3Pal^3 -Ser^4 -NMeTyr^5 -DLys(N-epsilon-Shik)^6 -Leu^7 -Arg^8 -Pro^9 -DAla^10 NH2] ({d2Nal(N,N-C(O)(CH2)4)}-[dPhe(4-Cl)][d3Pal]S[NMeY][dK](Shikimoyl)LRP[dA]-NH2) stands 12.9 pM. As for `CC(C)C[C@H](NC(=O)[C@@H](CCCCNC(=O)CNC(=O)C1=C[C@@H](O)[C@@H](O)[C@H](O)C1)NC(=O)[C@H](Cc1ccc(O)cc1)N(C)C(=O)[C@H](CO)NC(=O)[C@@H](Cc1cccnc1)NC(=O)[C@@H](Cc1ccc(Cl)cc1)NC(=O)[C@@H](Cc1ccc2ccccc2c1)N1CCCC1=O)C(=O)N[C@@H](CCCCNC(=N)N)C(=O)N1CCC[C@H]1C(=O)N[C@H](C)C(N)=O` [Example 5, 5LactD2Nal^1 -D4ClPhe^2 -D3Pal^3 -Ser^4 -NMeTyr^5 -DLys(N-epsilon-Gly-Shik)^6 -Leu^7 -Harg^8 -Pro^9 -DAla^10 NH2] ({d2Nal(N,N-(CH2)3CO)}-[dPhe(4-Cl)][d3Pal]S[NMeY][dK]([Gly-Shikimoyl])L[hArg]P[dA]-NH2), the Kb was 6.46 pM. The figure for `CC(C)C[C@H](NC(=O)[C@@H](CCCCNC(=O)C1=C[C@@H](O)[C@@H](O)[C@H](O)C1)NC(=O)[C@H](Cc1ccc(O)cc1)N(C)C(=O)[C@H](CO)NC(=O)[C@@H](Cc1cccnc1)NC(=O)[C@@H](Cc1ccc(Cl)cc1)NC(=O)[C@@H](Cc1ccc2ccccc2c1)N1CCCCC1=O)C(=O)N[C@@H](CCCCNC(=N)N)C(=O)N1CCC[C@H]1C(=O)N[C@H](C)C(N)=O` [Example 10, 6LactD2Nal^1 -D4ClPhe^2 -D3Pal^3 -Ser^4 -NMeTyr^5 -DLys(N-epsilon-Shik)^6 -Leu^7 -Harg^8 -Pro^9 -DAla^10 NH2] ({d2Nal(N,N-C(O)(CH2)4)}-[dPhe(4-Cl)][d3Pal]S[NMeY][dK](Shikimoyl)L[hArg]P[dA]-NH2) is 20.9 pM. As to `CC(C)C[C@H](NC(=O)[C@@H](CCCCNC(=O)c1cccnc1)NC(=O)[C@H](Cc1ccc(O)cc1)N(C)C(=O)[C@H](CO)NC(=O)[C@@H](Cc1cccnc1)NC(=O)[C@@H](Cc1ccc(Cl)cc1)NC(=O)[C@@H](Cc1ccc2ccccc2c1)N1CCCC1=O)C(=O)N[C@@H](CCCCNC(C)C)C(=O)N1CCC[C@H]1C(=O)N[C@H](C)C(N)=O` [Example 7, 5LactD2Nal^1 -D4ClPhe^2 -D3Pal^3 -Ser^4 -NMeTyr^5 -DLys(N-epsilon-Nic)^6 -Leu^7 -Lys(N-epsilon-Isopropyl)^8 -Pro^9 -DAla^10 NH2] ({d2Nal(N,N-(CH2)3CO)}-[dPhe(4-Cl)][d3Pal]S[NMeY][dK](Nicotinoyl)L[Lys(iPr)]P[dA]-NH2), the Kb was 37.2 pM. The figure for `CC(C)C[C@H](NC(=O)[C@@H](CCCCNC(=O)C1=C[C@@H](O)[C@@H](O)[C@H](O)C1)NC(=O)[C@H](Cc1ccc(O)cc1)N(C)C(=O)[C@H](CO)NC(=O)[C@@H](Cc1cccnc1)NC(=O)[C@@H](Cc1ccc(Cl)cc1)NC(=O)[C@@H](Cc1ccc2ccccc2c1)N1CCCC1=O)C(=O)N[C@@H](CCCCNC(=N)N)C(=O)N1CCC[C@H]1C(=O)N[C@H](C)C(N)=O` [Example 4, 5LactD2Nal^1 -D4ClPhe^2 -D3Pal^3 -Ser^4 -NMeTyr^5 -DLys(N-epsilon-Shik)^6 -Leu^7 -Harg^8 -Pro^9 -DAla^10 NH2] ({d2Nal(N,N-(CH2)3CO)}-[dPhe(4-Cl)][d3Pal]S[NMeY][dK](Shikimoyl)L[hArg]P[dA]-NH2) is 6.92 pM; for `CC(C)C[C@H](NC(=O)[C@@H](CCCCNC(=O)CNC(=O)C1=C[C@@H](O)[C@@H](O)[C@H](O)C1)NC(=O)[C@H](Cc1ccc(O)cc1)N(C)C(=O)[C@H](CO)NC(=O)[C@@H](Cc1cccnc1)NC(=O)[C@@H](Cc1ccc(Cl)cc1)NC(=O)[C@@H](Cc1ccc2ccccc2c1)N1CCCCC1=O)C(=O)N[C@@H](CCCNC(=N)N)C(=O)N1CCC[C@H]1C(=O)N[C@H](C)C(N)=O` [Example 9, 6LactD2Nal^1 -D4ClPhe^2 -D3Pal^3 -Ser^4 -NMeTyr^5 -DLys(N-epsilon-Gly-Shik)^6 -Leu^7 -Arg^8 -Pro^9 -DAla^10 NH2] ({d2Nal(N,N-C(O)(CH2)4)}-[dPhe(4-Cl)][d3Pal]S[NMeY][dK]([Gly-Shikimoyl])LRP[dA]-NH2) it is 35.5 pM.

As for `CC(C)C[C@H](NC(=O)[C@@H](CCCCNC(=O)c1cccnc1)NC(=O)[C@H](Cc1ccc(O)cc1)N(C)C(=O)[C@H](CO)NC(=O)[C@@H](Cc1cccnc1)NC(=O)[C@@H](Cc1ccc(Cl)cc1)NC(=O)[C@@H](Cc1ccc2ccccc2c1)N1CCCCC1=O)C(=O)N[C@@H](CCCCNC(C)C)C(=O)N1CCC[C@H]1C(=O)N[C@H](C)C(N)=O` [Example 13, 6LactD2Nal^1 -D4ClPhe^2 -D3Pal^3 -Ser^4 -NMeTyr^5 -DLys(N-epsilon-Nic)^6 -Leu^7 -Lys(N-epsilon-Isopropyl)^8 -Pro^9 -DAla^10 NH2] ({d2Nal(N,N-C(O)(CH2)4)}-[dPhe(4-Cl)][d3Pal]S[NMeY][dK](Nicotinoyl)L[Lys(iPr)]P[dA]-NH2), the Kb is 17.8 pM.

In the case of `CC(C)C[C@H](NC(=O)[C@@H](CCCCNC(=O)CNC(=O)C1=C[C@@H](O)[C@@H](O)[C@H](O)C1)NC(=O)[C@H](Cc1ccc(O)cc1)N(C)C(=O)[C@H](CO)NC(=O)[C@@H](Cc1cccnc1)NC(=O)[C@@H](Cc1ccc(Cl)cc1)NC(=O)[C@@H](Cc1ccc2ccccc2c1)N1CCCC1=O)C(=O)N[C@@H](CCCNC(=N)N)C(=O)N1CCC[C@H]1C(=O)N[C@H](C)C(N)=O` [Example 3, 5LactD2Nal^1 -D4ClPhe^2 -D3Pal^3 -Ser^4 -NMeTyr^5 -DLys(N-epsilon-Gly-Shik)^6 -Leu^7 -Arg^8 -Pro^9 -DAla^10 NH2] ({d2Nal(N,N-(CH2)3CO)}-[dPhe(4-Cl)][d3Pal]S[NMeY][dK]([Gly-Shikimoyl])LRP[dA]-NH2), the Kb was 20.9 pM. With `CC(C)C[C@H](NC(=O)[C@@H](CCCNC(N)=O)NC(=O)[C@H](Cc1ccc(O)cc1)N(C)C(=O)[C@H](CO)NC(=O)[C@@H](Cc1cccc2ccccc12)NC(=O)[C@@H](Cc1ccc(Cl)cc1)NC(=O)CN1CCCC1=O)C(=O)N[C@@H](CCCNC(=N)N)C(=O)N1CCC[C@H]1C(=O)N[C@H](C)C(N)=O` [Example 14, 5LactGly^1 -D4ClPhe^2 -D1Nal^3 -Ser^4 -NMeTyr^5 -DCit^6 -Leu^7 -Arg^8 -Pro^9 -DAla^10 NH2] ({Acetyl(2-oxopyrrolidin-1-yl)}-[dPhe(4-Cl)][d1Nal]S[NMeY][dCit]LRP[dA]-NH2), the Kb is 17.8 pM. Take `CC(C)C[C@H](NC(=O)[C@@H](CCCCNC(N)=O)NC(=O)[C@H](Cc1ccc(O)cc1)NC(=O)[C@H](CO)NC(=O)[C@@H](Cc1cccnc1)NC(=O)[C@@H](Cc1ccc(Cl)cc1)NC(=O)[C@@H](Cc1ccc2ccccc2c1)N1CCCC1=O)C(=O)N[C@@H](CCCCNC(C)C)C(=O)N1CCC[C@H]1C(=O)N[C@H](C)C(N)=O` [Example 12, 5LactD2Nal^1 -D4ClPhe^2 -D3Pal^3 -Ser^4 -Tyr^5 -DHcit^6 -Leu^7 -Lys(isp)^8 -Pro^9 -DAla^10NH2] ({d2Nal(N,N-(CH2)3CO)}-[dPhe(4-Cl)][d3Pal]SY[d(hCit)]L[Lys(iPr)]P[dA]-NH2): the Kb was 17.8 pM.

As to `CC(C)C[C@H](NC(=O)[C@@H](CCCCNC(=O)CNC(=O)C1=C[C@@H](O)[C@@H](O)[C@H](O)C1)NC(=O)[C@H](Cc1ccc(O)cc1)N(C)C(=O)[C@H](CO)NC(=O)[C@@H](Cc1cccnc1)NC(=O)[C@@H](Cc1ccc(Cl)cc1)NC(=O)[C@@H](Cc1ccc2ccccc2c1)N1CCCCC1=O)C(=O)N[C@@H](CCCCNC(=N)N)C(=O)N1CCC[C@H]1C(=O)N[C@H](C)C(N)=O` [Example 11, 6LactD2Nal^1 -D4ClPhe^2 -D3Pal^3 -Ser^4 -NMeTyr^5 -DLys(N-epsilon-Gly-Shik)^6 -Leu^7 -Harg^8 -Pro^9 -DAla^10 NH2] ({d2Nal(N,N-C(O)(CH2)4)}-[dPhe(4-Cl)][d3Pal]S[NMeY][dK]([Gly-Shikimoyl])L[hArg]P[dA]-NH2), the Kb is 20.9 pM.
